Measured values: US7049455B2, “Process for producing shogaols and intermediates for the synthesis thereof” (Toagosei Co., Ltd., priority 2002, dated 2006)
Entries after “also recorded” stand apart in the source; their conditions may differ.

System: mushroom-derived tyrosinase
Assay: inhibition of the activity of mushroom-derived tyrosinase, L-dopa as substrate
Assay type: biochemical
Conditions: L-dopa as a substrate, compared with arbutin (Tokyo Kasei Kogyo)
Description: A test of [6]-shogaol obtained in Example 5 about the inhibition of the activity of mushroom-derived tyrosinase was done, using L-dopa as a substrate.

For `CCCCC/C=C/C(=O)CCc1ccc(O)c(OC)c1` [[6]-shogaol], which “inhibition of tyrosinase activity” value is on record?
Its value is “inhibited tyrosinase activity; also recorded: inhibitory activity at the same level as that of arbutin”.
